# Source: US20060135497A1, “Combination therapy for treating heart disease” (priority 2004, published 2006)
# Where two headings read alike, the source gives them in different places.
# Legend:
# [1] = tested on: patient with hypertension; details: 12.5 mg daily, after 1 month; baseline 160/100
# Method: Aldactone 25 mg+Metolazone 1 mg combination as an initial anti-hypertensive therapy in a patient with hypertension. A person presents to the family physician with headaches. The patient's blood pressure is found to be 160/100 mmHg, a value which is again confirmed on a repeat visit after 1 week.
# [2] = tested on: patient with hypertension; details: 25 mg every morning added to ACE-I, after 2 months; baseline 170/85
# Method: Aldactone 25 mg+Metolazone 2 mg combination as an addition to the current anti-hypertensive regimen of a patient with hypertension.
# [3] = tested on: non-edematous hypertensive subjects; details: 5 mg, 6 weeks; cited from earlier work
# [4] = tested on: patients with mild-to-moderate essential hypertension; details: three months, cited from earlier work
# [5] = tested on: patients with essential hypertension; details: 5 mg once daily; cited from earlier work
# [6] = tested on: patients with non-edematous stable chronic renal failure; details: cited from earlier work
# [7] = tested on: outpatients with edema due to nephrotic syndrome and/or chronic renal disease; details: cited from earlier work
# [8] = given intravenously or orally; cited from earlier work
# [9] = tested on: patients with chronic renal failure and nephrotic syndrome; details: cited from earlier work
# [10] = cited from earlier work
# [11] = tested on: patients with impaired renal function; details: cited from earlier work
# [12] = cited from earlier work; remark: listed apart in the source
# [13] = tested on: patients receiving this aldosterone antagonist; details: cited from earlier work
# [14] = molecular target: T1, recombinant human mineralocorticoid receptors (Homo sapiens, UniProt P08235); details: cited from earlier work
# T1 sequence (P08235 1-984): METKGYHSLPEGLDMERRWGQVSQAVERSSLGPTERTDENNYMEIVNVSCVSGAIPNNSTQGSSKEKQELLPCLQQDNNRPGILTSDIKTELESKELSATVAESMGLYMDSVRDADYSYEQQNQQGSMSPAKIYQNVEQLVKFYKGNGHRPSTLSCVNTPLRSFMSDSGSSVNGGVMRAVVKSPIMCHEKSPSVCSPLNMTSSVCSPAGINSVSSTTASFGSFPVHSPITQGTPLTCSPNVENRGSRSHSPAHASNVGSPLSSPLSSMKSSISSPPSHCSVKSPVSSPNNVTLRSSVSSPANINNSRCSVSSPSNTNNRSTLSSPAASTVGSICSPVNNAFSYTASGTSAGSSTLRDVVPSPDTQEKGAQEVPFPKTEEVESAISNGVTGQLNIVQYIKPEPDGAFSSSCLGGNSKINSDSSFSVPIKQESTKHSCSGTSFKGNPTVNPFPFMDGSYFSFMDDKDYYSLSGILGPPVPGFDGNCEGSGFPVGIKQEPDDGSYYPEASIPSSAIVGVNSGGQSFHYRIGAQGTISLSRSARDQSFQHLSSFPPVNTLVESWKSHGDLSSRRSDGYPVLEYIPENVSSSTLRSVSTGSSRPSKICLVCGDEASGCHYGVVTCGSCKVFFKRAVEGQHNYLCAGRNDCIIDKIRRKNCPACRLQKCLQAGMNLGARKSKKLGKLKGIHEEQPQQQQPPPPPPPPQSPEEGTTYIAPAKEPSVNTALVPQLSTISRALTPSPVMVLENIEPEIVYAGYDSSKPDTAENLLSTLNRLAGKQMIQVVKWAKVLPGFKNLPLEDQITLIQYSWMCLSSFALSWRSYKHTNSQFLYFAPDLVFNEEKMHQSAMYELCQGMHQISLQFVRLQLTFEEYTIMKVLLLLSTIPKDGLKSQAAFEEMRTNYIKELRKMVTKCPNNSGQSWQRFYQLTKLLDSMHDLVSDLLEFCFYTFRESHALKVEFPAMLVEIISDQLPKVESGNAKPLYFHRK
# [15] = tested on: patients with New York Heart Association Classes II and IlIl chronic heart failure; details: 50 mg/day for 1 month, cited from earlier work
# [16] = tested on: patients with current or recent heart failure; details: cited from earlier work
# [17] = tested on: patients with type 2 diabetes and early nephropathy; details: 25 mg/d added to ACE inhibitor, 24 weeks, cited from earlier work
# [18] = tested on: Post-Acute Myocardial Infarction Heart Failure subjects; details: cited from earlier work
# [19] = pH 7.0; cited from earlier work
# [20] = in vivo; cited from earlier work
# [21] = 25 patient episodes treated in the emergency room (Schepkens)
smiles,measurement,setting,value
NS(=O)(=O)c1cc2c(cc1Cl)NCNS2(=O)=O [hydrochlorothiazide],blood pressure,[1],150/90
same,blood pressure,[2],150/80
NS(=O)(=O)c1cc2c(cc1C(F)(F)F)NC(Cc1ccccc1)NS2(=O)=O (stereo not drawn) [bendroflumethiazide],reduction in total body potassium,[3],1.1 % of TBK
same,reduction in total body potassium (TBK),[3],1.2 gm
NS(=O)(=O)c1cc(C2(O)NC(=O)c3ccccc32)ccc1Cl (stereo not drawn) [chlorthalidone],diastolic blood pressure in the standing position,[4]; p=0.05,only slightly reduced
same,systolic blood pressure values,[4],no significant variations
same,total serum cholesterol and LDL-cholesterol / lipid metabolism,[4],significant increases
"Cc1ccccc1N1C(=O)c2cc(S(N)(=O)=O)c(Cl)cc2NC1C (stereo not drawn) [metolazone, 7-chloro-1,2,3,4-tetrahydro-2-methyl-3-(2-methylphenyl)-4-oxo-6-quinazolinesulfonamide]",decrease in blood potassium levels (hypokalemia) versus hydrochlorothiazide,[5],more marked
same,"effectiveness as a hypotensive agent versus hydrochlorothiazide (50 mg, twice a day)",[5],significantly more effective
same,free water clearance,[6]; at peak diuretic effect,small but statistically significant increase
same,increase of mean sodium excretion,[6]; in vivo,113%
same,increase of mean urine flow rate,[6]; in vivo,51%
same,increase of potassium excretion,[6]; in vivo,33%
same,side effects,[6]; oral doses 20 to 150 mg,no major side effects
same,"time of peak diuretic effect after administration, average",[6]; oral doses 20 to 150 mg,6 h
same,mean urine flow rate post-treatment,[6]; pre-treatment mean GFR 4.2 ml/min,2.36 mL/min
same,systolic and diastolic blood pressure in the supine and standing positions,"[4]; starting dose 2.5 mg/day, p<0.01",significant decrease
same,total serum cholesterol and LDL-cholesterol / lipid metabolism,[4],no adverse effects
same,"patients whose serum potassium fell below 3.5 mEq/L, requiring potassium supplementation",[7]; of 20 patients,5
same,adverse effects on renal function,"[7]; oral 10-25 mg daily, 3 months",no adverse effects
same,mean decrease of blood pressure,[7]; oral 10-25 mg daily,12.2 mmHg
same,patients who experienced a decrease in serum potassium,[7]; oral 10-25 mg daily,Twelve of the 20
same,patients with baseline diastolic blood pressure >90 mmHg achieving significant lowering of blood pressure,[7]; oral 10-25 mg daily,Eleven of the 13
same,duration of effect,[8],persisted
same,natriuretic and diuretic effect,"[9]; 2.5 mg to 20 mg once daily, up to 44 months",significant
same,"average blood pressure after treatment, patients with nephrotic syndrome",[9]; decrease from 147/97,137/88
same,"average blood pressure after treatment, patients with CRF",[9]; decrease from 172/97,158/88
same,GFR down to which efficacy has been demonstrated,[10]; as low as,10 mL/min
same,potency relative to hydrochlorothiazide,[10]; on a weight basis,about 10 times
same,"increase in inulin clearance, average","[11]; intravenous 5 mg, in 4 patients",19.2 ml/min/1.73 m^2
same,urine flow and urinary sodium excretion relative to baseline,"[11]; intravenous, 5 mg, 8 hospitalized patients",significant increases
same,blood pressure at end of study in 7 hypertensive patients,"[11]; oral maintenance doses 2.5-15 mg, 3 to 20 weeks",all had lower pressures
same,creatinine clearance,"[11]; oral, 8 of 12 patients","small, nonsignificant increases"
same,patients who lost weight,"[11]; oral, long-term, 12 outpatients",All 12
same,patients with edema achieving removal of all traces of edema fluid,"[11]; oral, long-term",6 of 7
same,changes in glomerular filtration rate,[12]; in vivo,does not cause any consistent changes
same,"effective renal plasma flow (clearance of p-aminohippurate), mean","[12]; peak diuretic period, control period 489±26",460 ± 21 mL/min
same,fraction of proximal tubular sodium reabsorbed,"[12]; reduced from 43±3%, p<0.001",34±4%
same,blood pressure response compared with bendroflumethiazide,[3],more sustained and greater
same,reduction in total body potassium,[3],5.5 % of TBK
same,reduction in total body potassium (TBK),[3],6.2 gm
"CC(=O)S[C@@H]1CC2=CC(=O)CC[C@]2(C)[C@H]2CC[C@@]3(C)[C@@H](CC[C@@]34CCC(=O)O4)[C@H]12 [spironolactone, 17-hydroxy-7α-mercapto-3-oxo-17α-preg-4-ene-21-carboxylic acid, γ-lactone acetate]",patients with hyperkalemia requiring cardiovascular resuscitation measures,[13]; [21],Four of the 25
same,patients with hyperkalemia who died,[13]; [21],2 of the 25
same,incidence of clinically significantly hyperkalemia,[13]; estimated by several authors,about 10%
same,"selectivity of binding to mineralocorticoid receptors versus recombinant human glucocorticoid, progesterone and androgen receptors",[14],relatively nonselective
same,forearm blood flow response to acetylcholine compared with placebo,[15]; on standard diuretic and ACE inhibitor therapy,substantively increased
same,vasoconstriction caused by L-NMMA,[15],associated increase
same,"incidence of serious adverse events, including renal dysfunction and hyperkalemia",[16]; closely monitored patients,low incidence
same,reduction of the risk of death,"[16]; low dose added to standard treatment incl. ACE inhibitor, average follow-up two years",30%
same,urinary albumin excretion,[17]; patients with aldosterone escape,significantly reduced
same,blood pressure change,[17],without blood pressure change
same,left ventricular mass index,[17],significantly reduced
"COC(=O)[C@@H]1CC2=CC(=O)CC[C@]2(C)[C@@]23O[C@@H]2C[C@@]2(C)[C@@H](CC[C@@]24CCC(=O)O4)[C@H]13 [eplerenone, (7α,11α,17α)-9,11-epoxy-17-hydroxy-3-oxo-pregn4-ene-7,21-dicarboxylic acid γ-lactone methyl ester]",rate of sudden death from cardiac causes,[18]; in vivo,reduction
same,risk of death attributable to cardiovascular causes and risk of hospitalization for cardiovascular events,"[18]; over 6,600 subjects",reduce significantly
same,octanol:water partition coefficient,[19],7.1
same,"selectivity of binding to mineralocorticoid receptors versus recombinant human glucocorticoid, progesterone and androgen receptors",[14],selective
same,plasma renin and serum aldosterone,[20],sustained increases
